# Measurements reported in publication PMC10056443, “Derivatives of Amaryllidaceae Alkaloid Ambelline as Selective Inhibitors of Hepatic Stage of Plasmodium berghei Infection In Vitro” (Pharmaceutics, 2023).
# Read-outs that look alike come from different tables or passages of the source.
# How the values were obtained:
# [1] = Cytotoxicity assessment in vitro (MTT assay); type: cell-based; details: human
# Protocol: (§1) HepG2 cells of human hepatocellular carcinoma (ATCC HB-8065; passage 20–25), purchased from Health Protection Agency Culture Collections (ECACC, Salisbury, UK), were cultured in Minimum Essential Medium Eagle supplemented with 10% v/v fetal bovine serum and 1% v/v L-glutamine solution (Sigma-Aldrich, St. Louis, MO, USA) at 37 °C in a humidified atmosphere containing 5% CO2. For passaging, the cells were treated with trypsin/EDTA (Sigma-Aldrich, St. Louis, MO, USA) at 37 °C and then harvested. For the cytotoxicity evaluation, the cells treated with the test substances were used, while untreated HepG2 cells served as a control group. The cells were seeded in a 96-well plate at a density of 1 × 10^4 cells per well and incubated for 24 h. All tested compounds were dissolved in DMSO to prepare 10 mM stock solutions and diluted to the desired concentration just before the cell treatment. Cytotoxicity of all studied derivatives was screened at 10 μM concentration, and all samples were measured in triplicates. Positive and negative controls were also included. Plates were incubated for 24 h in a humidified atmosphere containing 5% CO2 at 37 °C. After the incubation, a solution of thiazolyl blue tetrazolium bromide (Sigma-Aldrich, St. Louis, MO, USA) in RPMI 1640 medium without phenol red (BioTech, Prague, Czech Republic) was added and incubated for 3 h in a humidified atmosphere containing 5% CO2 at 37 °C. Afterwards, formazan crystals were dissolved in DMSO, and the absorbance of samples was recorded at 570 nm (Synergy Neo2 Multi-Mode Reader NEO2SMALPHAB; BioTek, Winooski, VT, USA).
# HepG2 cells = assay: Cytotoxicity assessment in vitro (MTT assay); type: cell-based
# Protocol: as §1
# Huh-7 cell line = assay: Huh-7 cell confluency by alamarBlue assay during hepatic-stage test; type: cell-based
# Protocol: (§2) Activity against the hepatic stage of P. berghei infection was assessed using the human hepatoma cell line Huh-7 (deposited at the Japanese Collection of Research Bioresources under JCRB0403). The protocol was previously comprehensively described by Prudêncio et al. and by Ploemen et al.. Briefly, cell culture medium consisted of 1640 RPMI medium supplemented with 10% v/v fetal calf serum, 1% v/v L-glutamine, 1% v/v nonessential amino acids, 1% v/v penicillin/streptomycin, and 10 mM HEPES, pH 7. Cells were seeded in 96-well plates at a density of 1 × 10^4 cells per well in 100 µL of culture medium and incubated at 37 °C with 5% CO2 for approximately 18 h. […] The culture medium was substituted by infection medium with diluted compounds 1 hour in advance of infection. Luciferase-expressing P. berghei sporozoites (PbA-LuciGFPcon spz) were freshly obtained through the dissection of salivary glands from infected female Anopheles stephensi mosquitoes. Sporozoites were added to the cells at 1:1 ratio, i.e., 1 × 10^4 sporozoites were added per well, and then subjected to centrifugation at 1800× g for 5 min. The plate was then incubated for 46 h at 37 °C with 5% CO2, at which time Huh-7 cell confluency was indirectly assessed by the alamarBlue assay (Invitrogen, Waltham, MA, USA), as reported in the manufacturer’s protocol. Parasite load was assessed 48 h post-infection by a bioluminescence assay, as reported by the manufacturer (Biotium, Fremont, CA, USA). GraphPad Prism 8 (GraphPad Software, Inc., La Jolla, CA, USA) was used to obtain IC50 values using nonlinear regression analysis to fit the dose-response curves normalized results.
# [2] = test system: hepatic stage of P. berghei; assay: In vitro activity against P. berghei hepatic stages (luciferase-expressing sporozoites in Huh-7 cells, bioluminescence); type: cell-based, Plasmodium berghei; details: Plasmodium berghei; for activity at 1 µM / activity at 10 µM: Huh-7, 48 h, DMSO = 100, read-out: INFECTION Ø screening
# Protocol: as §2, with “Briefly, cell culture medium consisted of 1640 RPMI medium supplemented with 10% v/v fetal calf serum, 1% v/v L-glutamine, 1% v/v nonessential amino acids, 1% v/v penicillin/streptomycin, and 10 mM HEPES, pH 7.” left out
# [3] = Huh-7, replicate 1, unit (Table 1: µM), read-out: Antiplasmodial activity - IC50 determination, 1. measurement
# [4] = Huh-7, replicate 2, unit (Table 1: µM), read-out: Antiplasmodial activity - IC50 determination, 2. measurement
# [5] = hepatic stage, Huh-7 cells, parasite load 48 h post-infection, read-out: IC50 P. berghei
# [6] = Huh-7, replicate 3, unit (Table 1: µM), read-out: Antiplasmodial activity - IC50 determination, 3. measurement
SMILES,"viability at 24 h, 10 µM [1] [%]","1. screening of cytotoxic potential, HepG2 cell line (HepG2 cells; human, 24 h, 10 µM)","2. screening of cytotoxic potential, HepG2 cell line (HepG2 cells; human, 24 h, 10 µM)","3. screening of cytotoxic potential, HepG2 cell line (HepG2 cells; human, 24 h, 10 µM)","Ø screening, HepG2 (sheet Graphs) (HepG2 cells; human, 24 h, 10 µM)","CELL CONFLUENCY Ø screening (Huh-7 cell line; human, 46 h, 1 µM, pH 7)","CELL CONFLUENCY Ø screening (Huh-7 cell line; human, 46 h, 10 µM, pH 7)",activity at 1 µM [2] [%],activity at 10 µM [2] [%],"IC50 [2, 3] [µM]","IC50 [2, 4] [µM]","IC50 [2, 5] [µM]","viability at 24 h, 10 µM ([1]; c = 10 µM, 24 h, MTT, read-out: HepG2 % of cell viability compared to non-treated control (100%)) [%]","Ø screening, HepG2 (sheet Graphs) (HepG2 cells; c = 10 μM, DMSO = 100, in %)","1. screening of cytotoxic potential, HepG2 cell line (HepG2 cells; c = 10 μM, replicate 1, in %)","2. screening of cytotoxic potential, HepG2 cell line (HepG2 cells; c = 10 μM, replicate 2, in %)","3. screening of cytotoxic potential, HepG2 cell line (HepG2 cells; c = 10 μM, replicate 3, in %)","CELL CONFLUENCY Ø screening (Huh-7 cell line; at 1 μM, DMSO = 100, in % (unit assumed))","CELL CONFLUENCY Ø screening (Huh-7 cell line; at 10 μM, DMSO = 100, in % (unit assumed))","IC50 [2, 6] [µM]"
"COc1ccc(C(=O)O[C@@H]2CN3Cc4c(cc5c(c4OC)OCO5)[C@@]24C=C[C@H](OC)C[C@@H]34)cc1OC [28l, 11-O-(3,4-Dimethoxybenzoyl)ambelline]",99 ± 9,106.14,89.55,102.39,99.36,85.82,70.05,1.65,0.301,0.16,0.135,0.147 ± 0.018,,,,,,,,
"COc1ccc(C(=O)O[C@@H]2CN3Cc4c(cc5c(c4OC)OCO5)[C@@]24C=C[C@H](OC)C[C@@H]34)cc1 [28k, 11-O-(4-Methoxybenzoyl)ambelline]",,,,,,,,19.9,0.872,0.446,0.456,0.451 ± 0.007,88 ± 2,87.88,88.02,89.64,85.98,107.6,76.48,
"COc1ccccc1C(=O)O[C@@H]1CN2Cc3c(cc4c(c3OC)OCO4)[C@@]13C=C[C@H](OC)C[C@@H]23 [28i, 11-O-(2-Methoxybenzoyl)ambelline]",86 ± 2,85.49,83.85,87.77,85.7,140.5,135.7,60.6,1.65,1.53,2.98,2.4 ± 0.77,,,,,,,,2.7
"COc1c2c(cc3c1OCO3)[C@]13C=C[C@H](OC)C[C@H]1N(C2)C[C@H]3OC(=O)c1cccc(C)c1 [28f, 11-O-(3-Methylbenzoyl)ambelline]",75 ± 1,76.64,74.3,74.27,75.07,118,93.35,15.1,0.306,0.185,0.41,0.317 ± 0.118,,,,,,,,0.357
